# Assays:
# Assay type in all cases: functional
# SUD4 [1] = assay: Growth inhibition of human SU-DHL-4 cells at 1.7 uM incubated for 3 days in presence of 0.033 uM acalabrutinib relative to control; settings: SU-DHL-4, 72 h, time 3 day, read-out: GI
# SUD4 [2] = assay: Growth inhibition of human SU-DHL-4 cells at 1.7 uM incubated for 3 days in presence of 0.017 uM acalabrutinib relative to control; settings: SU-DHL-4, 72 h, time 3 day, read-out: GI
# SUD4 [3] = assay: Growth inhibition of human SU-DHL-4 cells at 1.7 uM incubated for 3 days in presence of 0.003 uM acalabrutinib relative to control; settings: SU-DHL-4, 72 h, time 3 day, read-out: GI
# SUD4 [4] = assay: Growth inhibition of human SU-DHL-4 cells at 0.33 uM incubated for 3 days in presence of 0.33 uM acalabrutinib relative to control; settings: SU-DHL-4, 72 h, time 3 day, read-out: GI
# SUD4 [5] = assay: Growth inhibition of human SU-DHL-4 cells at 0.33 uM incubated for 3 days in presence of 0.17 uM acalabrutinib relative to control; settings: SU-DHL-4, 72 h, time 3 day, read-out: GI
# SUD4 [6] = assay: Growth inhibition of human SU-DHL-4 cells at 0.33 uM incubated for 3 days in presence of 0.033 uM acalabrutinib relative to control; settings: SU-DHL-4, 72 h, time 3 day, read-out: GI
# SUD4 [7] = assay: Growth inhibition of human SU-DHL-4 cells at 0.33 uM incubated for 3 days in presence of 0.017 uM acalabrutinib relative to control; settings: SU-DHL-4, 72 h, time 3 day, read-out: GI
# SUD4 [8] = assay: Growth inhibition of human SU-DHL-4 cells at 0.17 uM incubated for 3 days in presence of 0.33 uM acalabrutinib relative to control; settings: SU-DHL-4, 72 h, time 3 day, read-out: GI
# SUD4 [9] = assay: Growth inhibition of human SU-DHL-4 cells at 0.33 uM incubated for 3 days in presence of 0.003 uM acalabrutinib relative to control; settings: SU-DHL-4, 72 h, time 3 day, read-out: GI
# SUD4 [10] = assay: Growth inhibition of human SU-DHL-4 cells at 0.17 uM incubated for 3 days in presence of 0.17 uM acalabrutinib relative to control; settings: SU-DHL-4, 72 h, time 3 day, read-out: GI
# SUD4 [11] = assay: Growth inhibition of human SU-DHL-4 cells at 0.17 uM incubated for 3 days in presence of 0.033 uM acalabrutinib relative to control; settings: SU-DHL-4, 72 h, time 3 day, read-out: GI
# OCI-Ly10 [12] = assay: Growth inhibition of human OCILY10 cells at 0.17 uM incubated for 3 days in presence of 0.003 uM acalabrutinib relative to control; settings: OCI-Ly10, 72 h, time 3 day, read-out: GI
# OCI-Ly10 [13] = assay: Growth inhibition of human OCILY10 cells at 0.17 uM incubated for 3 days in presence of 0.017 uM acalabrutinib relative to control; settings: OCI-Ly10, 72 h, time 3 day, read-out: GI
# OCI-Ly10 [14] = assay: Growth inhibition of human OCILY10 cells at 0.17 uM incubated for 3 days in presence of 0.033 uM acalabrutinib relative to control; settings: OCI-Ly10, 72 h, time 3 day, read-out: GI
# OCI-Ly10 [15] = assay: Growth inhibition of human OCILY10 cells at 0.17 uM incubated for 3 days in presence of 0.17 uM acalabrutinib relative to control; settings: OCI-Ly10, 72 h, time 3 day, read-out: GI
# OCI-Ly10 [16] = assay: Growth inhibition of human OCILY10 cells at 0.17 uM incubated for 3 days in presence of 0.33 uM acalabrutinib relative to control; settings: OCI-Ly10, 72 h, time 3 day, read-out: GI
# OCI-Ly10 [17] = assay: Growth inhibition of human OCILY10 cells at 0.33 uM incubated for 3 days in presence of 0.003 uM acalabrutinib relative to control; settings: OCI-Ly10, 72 h, time 3 day, read-out: GI
# OCI-Ly10 [18] = assay: Growth inhibition of human OCILY10 cells at 0.33 uM incubated for 3 days in presence of 0.017 uM acalabrutinib relative to control; settings: OCI-Ly10, 72 h, time 3 day, read-out: GI
# OCI-Ly10 [19] = assay: Growth inhibition of human OCILY10 cells at 0.33 uM incubated for 3 days in presence of 0.033 uM acalabrutinib relative to control; settings: OCI-Ly10, 72 h, time 3 day, read-out: GI
# OCI-Ly10 [20] = assay: Growth inhibition of human OCILY10 cells at 1.7 uM incubated for 3 days in presence of 0.003 uM acalabrutinib relative to control; settings: OCI-Ly10, 72 h, time 3 day, read-out: GI
# OCI-Ly10 [21] = assay: Growth inhibition of human OCILY10 cells at 1.7 uM incubated for 3 days in presence of 0.17 uM acalabrutinib relative to control; settings: OCI-Ly10, 72 h, time 3 day, read-out: GI
# OCI-Ly10 [22] = assay: Growth inhibition of human OCILY10 cells at 1.7 uM incubated for 3 days in presence of 0.33 uM acalabrutinib relative to control; settings: OCI-Ly10, 72 h, time 3 day, read-out: GI
# OCI-Ly10 [23] = assay: Growth inhibition of human OCILY10 cells at 3.3 uM incubated for 3 days in presence of 0.003 uM acalabrutinib relative to control; settings: OCI-Ly10, 72 h, time 3 day, read-out: GI
# OCI-Ly10 [24] = assay: Growth inhibition of human OCILY10 cells at 3.3 uM incubated for 3 days in presence of 0.017 uM acalabrutinib relative to control; settings: OCI-Ly10, 72 h, time 3 day, read-out: GI
# OCI-Ly10 [25] = assay: Growth inhibition of human OCILY10 cells at 3.3 uM incubated for 3 days in presence of 0.033 uM acalabrutinib relative to control; settings: OCI-Ly10, 72 h, time 3 day, read-out: GI
# OCI-Ly10 [26] = assay: Growth inhibition of human OCILY10 cells at 3.3 uM incubated for 3 days in presence of 0.33 uM acalabrutinib relative to control; settings: OCI-Ly10, 72 h, time 3 day, read-out: GI
# OCI-Ly10 [27] = assay: Growth inhibition of human OCILY10 cells at 10 uM incubated for 3 days in presence of 0.003 uM acalabrutinib relative to control; settings: OCI-Ly10, 72 h, time 3 day, read-out: GI
# OCI-Ly10 [28] = assay: Growth inhibition of human OCILY10 cells at 10 uM incubated for 3 days in presence of 0.017 uM acalabrutinib relative to control; settings: OCI-Ly10, 72 h, time 3 day, read-out: GI
# OCI-Ly10 [29] = assay: Growth inhibition of human OCILY10 cells at 10 uM incubated for 3 days in presence of 0.033 uM acalabrutinib relative to control; settings: OCI-Ly10, 72 h, time 3 day, read-out: GI
# OCI-Ly10 [30] = assay: Growth inhibition of human OCILY10 cells at 10 uM incubated for 3 days in presence of 0.17 uM acalabrutinib relative to control; settings: OCI-Ly10, 72 h, time 3 day, read-out: GI
# OCI-Ly10 [31] = assay: Growth inhibition of human OCILY10 cells at 10 uM incubated for 3 days in presence of 0.33 uM acalabrutinib relative to control; settings: OCI-Ly10, 72 h, time 3 day, read-out: GI
# SUD4 [32] = assay: Growth inhibition of human SU-DHL-4 cells at 1.7 uM incubated for 3 days in presence of 0.17 uM acalabrutinib relative to control; settings: SU-DHL-4, 72 h, time 3 day, read-out: GI
# SUD4 [33] = assay: Growth inhibition of human SU-DHL-4 cells at 1.7 uM incubated for 3 days in presence of 0.33 uM acalabrutinib relative to control; settings: SU-DHL-4, 72 h, time 3 day, read-out: GI
# SUD4 [34] = assay: Growth inhibition of human SU-DHL-4 cells at 3.3 uM incubated for 3 days in presence of 0.003 uM acalabrutinib relative to control; settings: SU-DHL-4, 72 h, time 3 day, read-out: GI
# SUD4 [35] = assay: Growth inhibition of human SU-DHL-4 cells at 3.3 uM incubated for 3 days in presence of 0.017 uM acalabrutinib relative to control; settings: SU-DHL-4, 72 h, time 3 day, read-out: GI
# SUD4 [36] = assay: Growth inhibition of human SU-DHL-4 cells at 3.3 uM incubated for 3 days in presence of 0.17 uM acalabrutinib relative to control; settings: SU-DHL-4, 72 h, time 3 day, read-out: GI
# SUD4 [37] = assay: Growth inhibition of human SU-DHL-4 cells at 3.3 uM incubated for 3 days in presence of 0.33 uM acalabrutinib relative to control; settings: SU-DHL-4, 72 h, time 3 day, read-out: GI
# SUD4 [38] = assay: Growth inhibition of human SU-DHL-4 cells at 10 uM incubated for 3 days in presence of 0.017 uM acalabrutinib relative to control; settings: SU-DHL-4, 72 h, time 3 day, read-out: GI
# SUD4 [39] = assay: Growth inhibition of human SU-DHL-4 cells at 10 uM incubated for 3 days in presence of 0.033 uM acalabrutinib relative to control; settings: SU-DHL-4, 72 h, time 3 day, read-out: GI
# SUD4 [40] = assay: Growth inhibition of human SU-DHL-4 cells at 10 uM incubated for 3 days in presence of 0.17 uM acalabrutinib relative to control; settings: SU-DHL-4, 72 h, time 3 day, read-out: GI
# SUD4 [41] = assay: Growth inhibition of human SU-DHL-4 cells at 10 uM incubated for 3 days in presence of 0.33 uM acalabrutinib relative to control; settings: SU-DHL-4, 72 h, time 3 day, read-out: GI
compound,measurement,setting,value
CC[C@@H]1[C@H](F)C(=O)N[C@@H]1COc1nccc2cc(C(N)=O)c(OC)cc12 [ZIMLOVISERTIB],inhibition of growth at 1.7 µM,SUD4 [1],1%
same,inhibition of growth at 1.7 µM,SUD4 [2],2%
same,inhibition of growth at 1.7 µM,SUD4 [3],2%
same,inhibition of growth at 0.33 µM,SUD4 [4],6%
same,inhibition of growth at 0.33 µM,SUD4 [5],2%
same,inhibition of growth at 0.33 µM,SUD4 [6],1%
same,inhibition of growth at 0.33 µM,SUD4 [7],1%
same,inhibition of growth at 0.17 µM,SUD4 [8],6%
same,inhibition of growth at 0.33 µM,SUD4 [9],1%
same,inhibition of growth at 0.17 µM,SUD4 [10],2%
same,inhibition of growth at 0.17 µM,SUD4 [11],1%
same,inhibition of growth at 0.17 µM,OCI-Ly10 [12],22%
same,inhibition of growth at 0.17 µM,OCI-Ly10 [13],93%
same,inhibition of growth at 0.17 µM,OCI-Ly10 [14],142%
same,inhibition of growth at 0.17 µM,OCI-Ly10 [15],171%
same,inhibition of growth at 0.17 µM,OCI-Ly10 [16],171%
same,inhibition of growth at 0.33 µM,OCI-Ly10 [17],21%
same,inhibition of growth at 0.33 µM,OCI-Ly10 [18],92%
same,inhibition of growth at 0.33 µM,OCI-Ly10 [19],142%
same,inhibition of growth at 1.7 µM,OCI-Ly10 [20],26%
same,inhibition of growth at 1.7 µM,OCI-Ly10 [21],170%
same,inhibition of growth at 1.7 µM,OCI-Ly10 [22],170%
same,inhibition of growth at 3.3 µM,OCI-Ly10 [23],36%
same,inhibition of growth at 3.3 µM,OCI-Ly10 [24],95%
same,inhibition of growth at 3.3 µM,OCI-Ly10 [25],139%
same,inhibition of growth at 3.3 µM,OCI-Ly10 [26],170%
same,inhibition of growth at 10 µM,OCI-Ly10 [27],80%
same,inhibition of growth at 10 µM,OCI-Ly10 [28],140%
same,inhibition of growth at 10 µM,OCI-Ly10 [29],155%
same,inhibition of growth at 10 µM,OCI-Ly10 [30],178%
same,inhibition of growth at 10 µM,OCI-Ly10 [31],177%
same,inhibition of growth at 1.7 µM,SUD4 [32],3%
same,inhibition of growth at 1.7 µM,SUD4 [33],6%
same,inhibition of growth at 3.3 µM,SUD4 [34],2%
same,inhibition of growth at 3.3 µM,SUD4 [35],2%
same,inhibition of growth at 3.3 µM,SUD4 [36],3%
same,inhibition of growth at 3.3 µM,SUD4 [37],6%
same,inhibition of growth at 10 µM,SUD4 [38],3%
same,inhibition of growth at 10 µM,SUD4 [39],2%
same,inhibition of growth at 10 µM,SUD4 [40],3%
same,inhibition of growth at 10 µM,SUD4 [41],7%

# From ChEMBL document CHEMBL5244269, “Improving metabolic stability and removing aldehyde oxidase liability in a 5-azaquinazoline series of IRAK4 inhibitors” (Bioorg Med Chem, 2020)
